# Data published in patent US20260284076A1, “TESTOSTERONE AND DIFLUOROMETHYLORNITHINE COMBINATION THERAPY FOR PROSTATE CANCER” (The Johns Hopkins University, priority 2023, published 2026).
# Like-named read-outs stand apart in the source and are kept apart here.
# Tests used:
# [1] = system: chronically castrated patients with rising PSA and CRPC; assay: Pilot study of BAT with oral etoposide, then second line therapy post-BAT; assay type: in vivo, human; conditions: for PSA decline upon re-challenge: agent previously progressed on
# From the text: Based on the preclinical results and potential mechanisms for growth inhibition that include androgen-induced double strand breaks and stabilization of AR preventing relicensing, we have conducted a pilot study evaluating the efficacy and safety of pharmacologic doses of testosterone to produce high dose T levels in conjunction with oral etoposide in chronically castrated patients with rising PSA and CRPC (37). Patients who had been continuously castrate for more than one year with minimal metastatic disease burden (≤5 total bone metastases and ≤10 total sites of metastases) and/or rising PSA were eligible. To achieve rapid cycling between high dose and near castrate serum T (i.e., BAT) patients received intramuscular injection of 400 mg testosterone cypionate every 28 days. For the first 3 cycles of therapy patients received BAT plus oral etoposide 100 mg po/day days 1-14 of a 28-day cycle. After 3 cycles PSA response and objective response were assessed. Those patients with a PSA that was declining from peak levels and no objective evidence of disease progression or worsening pain were continued on therapy. Given the toxicity associated with etoposide and the lack of clinical response in an earlier trial (38), patients who responded after 3 cycles of testosterone plus etoposide were continued on testosterone alone based on protocol amendment.
# [2] = system: patients with CRPC progressing on Enza (Cohort A) or Abi (Cohort B); assay type: in vivo, human
# From the text: The RESTORE study (NCT02090114) was an NIH sponsored Phase II study designed to assess the safety and efficacy of BAT in patients (n=30 per cohort) with CRPC progressing on Enza (Cohort A) or Abi (Cohort B), FIG. 18A (34,39). The primary endpoint of the first part of the study was to assess PSA response to BAT. Secondary endpoints included objective response, safety, and quality of life. The second part of the study was to determine in BAT could re-sensitize patients to repeat exposure to second line therapy that patients were progressing on prior to receiving BAT. Thus, patients progressing on Enza were re-exposed to Enza after BAT and similarly for Abi. Both arms of this study met the primary endpoint. PSA50 response to BAT was 30% in patient's post-Enza and 18% post-Abi, FIG. 18B. […] Overall duration of response to BAT and duration of response to re-exposure was longer in the post-Enza vs. post-Abi cohort. The PSAso response to re-exposure to Enza was 71% vs. only 21% for patients re-exposed to Abi, FIG. 19B (7). A third cohort was later added (Cohort C) for patients progressing on ADT alone. Overall, 90 patients were treated on this study over a 4-year period (2014-2018).
# [3] = system: patients with CRPC; assay: BAT clinical studies, overall experience; assay type: in vivo, human
# From the text: A major driver of castration resistance is the adaptive upregulation of AR activity, often through AR protein overexpression, to a sufficient level to allow for renewed growth. This marked overexpression of AR makes PCa cells once again vulnerable to hormone shock, achieved not through further androgen blockade, but through exposure to supraphysiologic levels of androgen (SPA). Based on extensive preclinical studies, we developed Bipolar Androgen Therapy (BAT), which involves cyclic administration of SPA as treatment for CRPC.
# Inhibition of signaling through the androgen receptor (AR) is the mainstay of treatment of advanced PCa. […] This phase of the disease is associated with poor prognosis and limited therapeutic options. The majority of PCas are addicted to signaling through AR and adaptively upregulate AR-activity, via mechanisms such as AR overexpression, to permit sustained AR signaling despite castration and AR inhibitors (1,2). Studies dating back nearly thirty years indicate that high expression of AR induced by prolonged castration becomes a vulnerability of CRPC cells in vitro and in mouse xenografts to supraphysiological androgen (SPA), which induces cell death and growth arrest in this context (3,4). On the basis of these studies, we developed an innovative treatment called Bipolar Androgen Therapy (BAT) for patients with CRPC, in which SPA is administered intermittently to result in cycling of serum testosterone from supraphysiological to near castrate levels. This rapid cycling is intended to reduce adaptation AR regulation associated with chronic exposure to high or low levels of testosterone, while simultaneously targeting the spectrum of AR expression present in heterogeneous CRPC tumors (5). We have now tested BAT in more than 350 patients with CRPC (6-10).
# [4] = system: asymptomatic patients with CRPC progressing on Abi; assay: TRANSFORMER randomized Phase II study, BAT vs. Enza with crossover; assay type: in vivo, human
# Protocol: The TRANSFORMER study (NCT02286921) was a DOD-sponsored randomized Phase II study designed to compare the efficacy of BAT vs. Enza in asymptomatic patients with CRPC progressing on Abi, FIG. 19A (2). The study was conducted at 17 academic centers across the US. The study was coordinated by the Prostate Cancer Disease Group clinical research team at Johns Hopkins, who performed regulatory oversight, study/site monitoring, and data analyses. From 2015-2018, 195 patients underwent 1:1 randomization to either standard dose Enza (n=101) or BAT (n=94) at 400 mg IM every 28 days. The primary endpoint was clinical/radiographic PFS. At time of progression, patients were given the option to crossover to the alternate therapy. The trial was designed to show a 50% improvement in the primary endpoint for BAT vs. Enza. […] Objective response was 24.4% for BAT and 4.2% for Enza (p=0.067). Best PSA50 was 26.4% for BAT and 25.5% for Enza (p=0.697).
# At time of progression, 46 (49%) of patients on the Enza arm crossed over to receive BAT and 34 (33.7%) crossed over from BAT to receive Enza and were available for analysis. Remarkably, the PSAso response for patients who received Enza after BAT was 72.7% compared to 25.5% for patients receiving Enza immediately after Abi, FIG. 19D. Objective response in the Enza post-BAT patients was 28.6% compared to 4.2% post-Abi, FIG. 19B. […] The logical extension of these findings and the hypothesis of this proposal is that patients are likely to respond again to further repeat cycles of BAT and Enza, but this treatment strategy has yet to be explored in the clinical trial setting.
# [5] = system: patients with CRPC; assay: Plasma putrescine in patients treated with BAT (COMBAT trial); conditions: human, in vivo
# From the text: (§1) Vinculin was used as a loading control. FIG. 2F, Polyamine synthesis pathway.
# [6] = system: MYC; assay: MYC expression in metastatic tumor biopsies before and after BAT; assay type: in vivo, human; conditions: responding patients
# From the text: (§2) FIG. 5A, FIG. 5B, FIG. 5C, FIG. 5D, and FIG. 5E show: FIG. 5A, MYC expression by IHC in a metastatic tumor biopsy from a patient before and after 3 months of BAT. FIG. 5B, Quantification of MYC protein expression from metastatic tumor biopsies from patients before and after 3 months of BAT color-coded by response (non-responder NR; responder R). […] Vinculin was used as a loading control. FIG. 5D, Principal component analysis of RNA and ATAC sequencing of LNCaP cells treated for 5 days with R1881 10 nM (SPA). […] Vinculin was used as a loading control;
# [7] = system: LNCaP cells; assay: Putrescine abundance by HPLC in cells and media; assay type: cell-based, human; conditions: 10 nM
# From the text: as §1
# [8] = system: VCaP cells; assay: Colony formation (clonal survival); assay type: cell-based, human; conditions: Homo sapiens, VCaP; 0.5 nM
# From the text: (§3) FIG. 3A. […] Ns, not significant. FIG. 3B. […] Ns, not significant. FIG. 3C. […] P values by ANOVA;
# [9] = system: LNCaP cells; assay: Colony formation (clonal survival); assay type: cell-based, human; conditions: Homo sapiens, LNCaP; 0.5 nM
# From the text: as §3
# [10] = system: MYC in LNCaP and VCaP cells; assay: MYC expression by western blot, RT-PCR, RNAseq; assay type: cell-based, human; conditions: to the level of SPA monotherapy
# From the text: as §2
# [11] = system: patients with advanced CRPC, long-term castrates; conditions: cited from earlier work
# [12] = system: SKCaP-1R patient-derived xenograft tumors; assay: Global metabolomics of SKCaP-1R tumors; assay type: in vivo, castrated NSG mice; conditions: 14 days of treatment
# [13] = system: patients with early CRPC (rising PSA and minimal bone disease); conditions: cited from earlier work
# [14] = system: patients with CRPC; conditions: cited from earlier work
compound,measurement,setting,value
C[C@]12CC[C@H](O)CC1=CC[C@@H]1[C@@H]2CC[C@]2(C)C(c3cccnc3)=CC[C@@H]12 [Abi],patients with >50% PSA decline on second line therapy,[1]; post-BAT,Four of 4
same,PSA50 response to re-exposure (re-challenge) post-BAT,[2]; re-exposed to agent progressed on before BAT,21%
"C[C@]12CC[C@H]3[C@@H](CCC4=CC(=O)CC[C@@]43C)[C@@H]1CC[C@@H]2OC(=O)CCC1CCCC1 [BAT, androst-4-en-3-one, 17-(3-cyclopentyl-1-oxopropoxy)-, (17ß)-]",PSA50 response rate,"[3]; 56 days of BAT monotherapy, mCRPC",approximately 25%
same,PSA50 response rate,"[3]; 64 days of BAT monotherapy, mCRPC",approximately 25%
same,PSA/objective (biochemical and objective) response,"[3]; human, in vivo",20-30%
same,quality of life,"[3]; human, in vivo",improved quality of life
same,objective response rate,"[3]; mCRPC, monotherapy",approximately 30%
same,PSA50 response,[4]; BAT after Enza (crossover),22.2%
same,PSA50 response,"[4]; initial treatment immediately after Abi, no prior crossover",26.4%
same,clinical/radiographic PFS,[4]; randomized arms,5.62 m
same,Objective response,"[4]; randomized arms, post-Abi",24.4%
same,subjects experiencing an AE,[1]; BAT monotherapy phase,four
same,patients developing new bone metastases,[1]; completing 3 months of therapy,None of the 14 patients
same,AEs during BAT monotherapy phase,[1]; in vivo,rare and low grade
same,"new pain, skeletal events or urinary obstruction due to prostate cancer",[1]; in vivo,None of the 14 patients
same,patients with decline in PSA from baseline,[1]; in vivo,Seven of fourteen
same,"PSA decline/response and objective responses, patients",[1]; patients who completed three cycles,50%
same,median time to PSA progression,"[1]; seven patients with PSA decline, range 95 to 454 days",221 days
same,complete response (CR),[1]; ten RECIST-evaluable subjects,10%
same,partial responses (PRs),[1]; ten RECIST-evaluable subjects,40%
same,stable disease,"[1]; ten RECIST-evaluable subjects, median follow up 91 days",30%
same,progressive disease (PD),[1]; ten subjects with RECIST-evaluable soft tissue metastases,20%
same,"QoL surveys (FACIT Fatigue, IIEF, SF-36 subscales)",[2]; BAT compared to baseline on ADT,significant improvement
same,"Adverse events to BAT, grade",[2]; in vivo,primarily Grade 1-2
same,patients with grade 3 hypertension attributed to BAT,[2]; in vivo,3 patients
same,PSA50 response to BAT,[2]; post-Abi (Cohort B),18%
same,PSA50 response to BAT,[2]; post-Enza (Cohort A),30%
same,plasma putrescine abundance,[5],increased
same,MYC expression in tumor biopsies,[6],decreased
"C[C@]1(O)CC[C@H]2[C@@H]3CCC4=CC(=O)CCC4=C3C=C[C@@]21C [R1881, 17α-methyl-19-nor-δ9,11-testosterone]","putrescine, intracellular and extracellular",[7],Marked intracellular and extracellular accumulation
same,inhibition at 0.0005 µM,[8],~15%
same,inhibition at 0.0005 µM,[9],~15%
N=C(N)c1cccc2c1CC/C2=N\N=C(N)N [SAM486],rescue of MYC in cells treated with SPA and DFMO,[10],phenocopied
"C[S+](CC[C@H](N)C(=O)O)C[C@H]1O[C@@H](n2cnc3c(N)ncnc32)[C@H](O)[C@@H]1O (stereo partly shown) [SAM, S-adenosylmethionine]",rescue of MYC in cells treated with SPA and DFMO,[10],sufficient to rescue MYC
CC(O)(CS(=O)(=O)c1ccc(F)cc1)C(=O)Nc1ccc(C#N)c(C(F)(F)F)c1 (stereo not shown) [bicalutamide],PSA decline upon re-challenge,[1]; post-BAT,30.9%
CC1(C)NC(=O)N(c2ccc([N+](=O)[O-])c(C(F)(F)F)c2)C1=O [nilutamide],PSA decline upon re-challenge,[1]; post-BAT,44.3%
C[C@]12CC[C@H]3[C@@H](CCC4=CC(=O)CC[C@@]43C)[C@@H]1CC[C@@H]2O [testosterone],"clinical improvement (pain, prostate size, phosphatases)","[11]; Brendler et al. 1949, parenteral",considerable improvement in several patients
same,patients with subjective improvement,"[11]; long-term castrate group, at least one month",4 of 5
same,patients with decline of acid phosphatase,[11]; longer course of testosterone,2/5
same,abundance of polyamine precursors ornithine and SAM in tumors,[12],decreased
same,abundance of polyamines putrescine and spermine in tumors,[12],increased
C[C@]12CC[C@H]3[C@@H](CCC4=CC(=O)CC[C@@]43C)[C@@H]1CC[C@@H]2O [transdermal T],median concentration of T,[13]; 2.5 mg/day transdermal,305 ng/dL
same,median concentration of T,[13]; 5.0 mg/day transdermal,308 ng/dL
same,median concentration of T,[13]; 7.5 mg/day transdermal,297 ng/dL
same,patients with a decrease in PSA,[13]; 15 patients,20%
same,grade 3 or 4 toxicities,[13]; in vivo,no grade 3 or 4 toxicities were observed with the exception of one person
same,largest decrease in PSA,[13]; in vivo,43%
same,patients with symptomatic progression,[13]; in vivo,one
same,"grade 3 or 4 toxicities, pain flares",[14]; 7.5 mg/day,no grade 3 or 4 toxicities and no pain flares
same,objective responses,[14]; 7.5 mg/day,No objective responses
same,patients with >50% PSA decline,[14]; 12 patients,one
same,patients with at least 20% PSA declines,[14]; 12 patients,Four
